The target of assay [1] is T1, TrkB receptor (Mus musculus, UniProt P15209).
T1 construct: The culture continued until the primary cortical neuron cells mature; endogenous in cells; host or cells: primary cortical neurons from E18 mouse embryos (N171-82Q WT male x B6C3F1/J female)
Description: Western blotting of p-TrkB and t-TrkB in primary cortical neuron cells. Format: cell-based. Particulars: for Relative intensity of p-TrkB/t-TrkB protein: 10 min at 37° C., Vehicle = 100, n = 3. The protocol: (§1) N171-82Q WT male mice were mated with female B6C3F1/J hybrid mice. B6C3F1/J mice 18 days after pregnancy were anesthetized with isoflurane and dissected to remove embryos, which were then placed in a 10 cm Petri dish containing Leibovitz's buffer. The head of the embryo was cut off, and the brain was peeled off to obtain the whole mouse brain, which was then placed in a new 10 cm Petri dish containing Leibovitz's buffer. The neurocortex of the brain was separated and placed in a 15 mL centrifuge tube containing 3 mL Leibovitz's buffer. The centrifuge tube was centrifuged at 1000 rpm for 1 minute, and the Leibovitz's buffer was gently removed from the centrifuge tube, and then 750 μL of 0.25% trypsin-EDTA and 75 μL of 0.1% DNase (2000 U/mL) were added to digest at 37° C. for 15 min. 750 μL of DMEM medium containing 5% FBS was added to stop the digestion. The cells were mixed well, and centrifuged at 1000 rpm for 5 minutes. Trypins/DNase mixture was removed, and 750 μL of Neurobasal medium (B-27, Glutamax, P/S) was added. The cells were mixed by gently pipetting with a pipette for 30 times. The cell suspension was filtered with a 40 µm filter and transferred to another new 50 mL centrifuge tube. 10 μL of the cell suspension was added to 90 μL of DMEM (diluted 10 times), and 10 μL of the liquid mixture was placed on a hemocytometer so that the suspension filled between the cover slip and the counting plate for counting. The cells in the four large grids of the plate were counted, wherein for the cells across the line, only the cells on the left and upper side lines were counted. The following formulas were used:
(§2) Number of cells/mL=total number of cells in the four large grids/4×10^4/mL
(§3) Total number of cells/mL=total number of cells in the four large grids/4×10^4/mL×dilution factor.
(§4) After counting, the cells were diluted with Neurobasal selection medium so that 1 mL of Neurobasal culture medium contained 0.5×10^6 cells.
(§5) 200 μL of PDL solution previously heated in a 37° C. water bath was added to each well of a 6-well plate, and incubated at 37° C. overnight to allow PDL to evenly coat the well plate. The PDL solution was absorbed and the plate was washed twice with PBS. Before use, the PBS remaining on the plate was absorbed and the cover was opened to dry the plate in a super clean bench. 2 mL of cell suspension was added to each well (37° C., 5% CO2), and the cells were cultured until adherence. The culture medium was replaced and the culture continued for 3 days, and then the growth status of neurons was observed. Every other 3 days, half of the medium was removed and replaced with fresh complete medium. The culture continued until the primary cortical neuron cells mature (usually mature on the 14th day of culture).
(§6) After the primary cortical neuron cells have matured, appropriate amount of freshly prepared culture medium was added until final volume in each well was 2 mL. The experiment included a blank control group (Vehicle), a positive control group BDNF (10 ng/mL), a control compound group (500 nM), and 6 test compound groups (500 nM). Three repeats were set for each dose. After incubating at 37° C. for 10 min, the culture solution was discarded and the cells were washed with pre-chilled PBS, and then 40 μL of pre-chilled lysate (RIPA buffer 10 mL and protease and phosphatase inhibitor 100 μL) was added to each well for lysis on ice for 30 min. After lysis, the cell was crushed by ultrasonic cell crusher, centrifuged at 14000 rpm for 20 min at 4° C. The supernatant was transferred to a new 1.5 mL centrifuge tube to extract protein. Western blotting experiments were used to detect the protein levels of (A) p-TrkB and t-TrkB; (B) p-AKT and t-AKT.
(§7) The software Sigmaplot 13.0 was used for statistical analysis of the data, and the data of each group was expressed as mean±standard error (x±SEM). […]
(In general: Immunoblotting shows a protein as a band on a membrane.)

In assay [2] the test system is AKT signaling pathway. Description: Western blotting of p-AKT and t-AKT in primary cortical neuron cells. Format: cell-based, mouse. Particulars: 10 min at 37° C., Vehicle = 100, n = 3. The protocol: as §1, §2, §3, §4, §5, §6, §7
Assay [3] concerns Phospho-Akt S473. The assay can be described thus: ELISA analysis of Phospho-Akt S473 in primary cortical neuron cells. Particulars: 10 min at 37° C. Format: cell-based, mouse. The protocol: The primary cortical neuron cells were cultured in the same way as in Example 21, and after maturity, appropriate amount of freshly prepared culture medium was added until final volume in each well was 2 mL. The experiment included a blank control group (Vehicle), a positive control group BDNF (10 ng/mL), a control compound group (500 nM), and 6 test compound groups (500 nM). Three repeats were set for each dose. After incubating at 37° C. for 10 min, the culture solution was discarded and the cells were washed with pre-chilled PBS, and then 40 μL of pre-chilled lysate (RIPA buffer 10 mL and protease and phosphatase inhibitor 100 μL) was added to each well for lysis on ice for 30 min. After lysis, the cell was crushed by ultrasonic cell crusher, centrifuged at 14000 rpm for 20 min at 4° C. The supernatant was transferred to a new 1.5 mL centrifuge tube to extract protein. The p-Akt ELISA experiment quantitatively detected the intracellular p-Akt protein level.
A series of p-Akt standard solutions with different concentrations were prepared, and the absorbance value was measured to make a standard curve. Phospho-Akt1 (Ser473) sandwich ELISA kit was purchased from Cell Signaling Technology (catalog number 7160). The antibody was coated in a 96-well plate at 4° C. overnight and was washed. The coated plate was blocked with 2% bovine serum albumin (BSA), and after sufficient washing, 100 μL of sample diluent (supplied in the kit) was added to each well to dilute the extracted protein. The plate was incubated overnight at 4° C. After washing 4 times with 200 μL of washing buffer (supplied in the kit), 100 μL/well of detection antibody was added and the plate was incubated at 37° C. for 1 hour. After 4 washes, 100 μL of HRP-conjugated secondary antibody (supplied in the kit) was added and the plate was incubated at 37° C. for 30 minutes. After the final wash, 100 μL of TMB substrate was added to each well and the plate was incubated at 37° C. for 10 minutes. TMB was use as a substrate to detect the signal, since TMB can be oxidized to produce a blue solution. The reaction was stopped by adding 100 μL/well stop solution, and the test result can remain stable within one hour after the stop of the reaction. The value of each well at 450 nm and 650 nm was detected using a microplate reader. The optical density (OD) was determined by subtracting the reading at 650 nm (disturbance from the solution itself) from the reading at 450 nm. According to the OD value corresponding to the standard curve, the p-Akt concentration in each well was obtained.
the data of each group was expressed as mean standard error (x±SEM). The ratio of the detection results of each positive control group (BNDF), control compound group (the same control compound as in Example 21) and each test compound group to the blank control group was used as an indicator to compare the p-Akt test results of the positive control group, control compound group, and each test compound group. One-way ANOVA and LSD post-hoc test were used to compare the measurement data among multiple groups, and P<0.05 was considered statistically significant.

Assay [4] concerns rats with permanent cerebral ischemia. Description: Neurobehavioral scoring in rats with permanent cerebral ischemia (MCAO thread plug). Format: in vivo, SD rats. Particulars: 0.078 mg/kg intravenous. As for the experimental part:
(§8) SD rats, male, about 220-250 g, were provided by the Experimental Animal Center of Medical College of Xi'an Jiaotong University. Rats were randomly divided into groups of 14 animals/group. The experiment included a sham group, a model group, a positive control Edaravone group and test compound groups 1-5.12 hours before the operation, the rats were fasted and were free to drink water, and then used for the modeling method of middle cerebral artery occlusion with thread plug. The rats were fixed on a wooden board after anesthesia, the common carotid artery was ligated proximally, the external carotid artery was ligated distally, and the main internal carotid artery into skull was retained. A ligature line was reserved at the bifurcation of the internal carotid artery for temporarily clamping the distal end of the internal carotid artery using an arterial clip. A 3-0 nylon thread with a length of 5 cm and a spherical shape with a diameter of 0.3 mm at the tip was inserted into the common carotid artery through a small incision at the bifurcation. The arterial clamp was loosened, and the thread plug was slowly advanced to 18˜20 mm. When there was resistance, the progress of the thread was stopped. At this time, the nylon thread plug entered the middle artery and blocked the blood flow, and then the ischemic phase began. The skin was sutured. In the sham operation group, the same procedure was executed, except that no thread plug was inserted.
(§9) Administering was performed at 0 h, 3 h, 6 h and 12 h after ischemia, and then administering was performed once a day for 7 consecutive days. The test compound was prepared into a 4 mg/mL solution with 1% CMC-Na solution and administered by gavage. The edaravone group received an intravenous dose of 0.078 mg/kg.
2) The rats were lifted at its tail about 1 foot off the ground to observe the condition of both forelimbs. The rats were placed on a level ground and pushed on both shoulders to observe the difference in resistance on both sides. The rats were placed on the ground to observe the walking. The assessment was conducted using a five-grade four-point scoring method (0 to 4 points). The higher the score, the more severe the neurobehavioral damage.
0 point: the behavior is completely normal;
1 point: when the rat is lifted at its tail off the ground, the forelimb on the opposite side of the operation rotates and folds inwardly.
2 points: when the rat is placed on a level ground and pushed on both shoulders to observe the difference in resistance on both sides, the resistance on the opposite side of the operation reduces;
3 points: when the rat is placed on the ground to the walking, it circles around the opposite side of the operation;
4 points: The injury is so severe that the rat is unable to move independently.
(§10) (2) Statistical analysis of data: SPSS18.0 statistical software was used for statistical analysis and the data of each group was expressed as the mean standard error (x±SEM). One-way ANOVA and multiple comparisons between groups were used to compare the averages of measurement data among multiple groups. Rank score test was used for behavioral grading data, and Kaplan-Meier method was used for mortality. P<0.05 was considered statistically significant.

Assay [5] has the same test system. Description: Cerebral infarction volume by TTC staining in rats with permanent cerebral ischemia. Particulars: 0.078 mg/kg intravenous, after 7 days of ischemia. The format is in vivo, SD rats. As for the experimental part: as §8, §9
3) Percentage of cerebral infarction volume after 7 days of ischemia: TTC staining was used to observe the infarct area.
The rats in each group were sacrificed by spinal dislocation […]. The brain tissue was quickly peeled off and placed in the refrigerator at −20° C. to freeze to an appropriate hardness to remove the olfactory bulb, cerebellum and low brain stem. Continuous coronary slices were performed at 1 mm intervals, to obtain a total of 5 slices. The slices were placed in 0.5% triphenyltetrazolium chloride (TTC) in phosphate buffer (pH=7.4) and incubated in a 37° C. incubator without light for 15 min, and then fixed in paraformaldehyde and observed (fixed time should be within 24 h). The normal brain tissue is rosy red, and infarcted brain tissue is pale. After taking the picture, the slice was scanned to save the image. The area of cerebral infarction and the total area of slices were calculated using Image J processing software.
Cerebral infarction volume (%)=(volume of the contralateral hemisphere of the operation−volume of the uninfarcted portion of the hemisphere of the occlusion)/volume of the contralateral hemisphere of the operation×100%
as §10

Experimental findings from US20200390755A1, “COMPOUND FOR TREATING NERVOUS SYSTEM DISEASES AND USE THEREOF” (SHAANXI MICOT TECHNOLOGY CO., LTD., priority 2018, published 2020) are described below.

T1 sequence (P15209 32-821): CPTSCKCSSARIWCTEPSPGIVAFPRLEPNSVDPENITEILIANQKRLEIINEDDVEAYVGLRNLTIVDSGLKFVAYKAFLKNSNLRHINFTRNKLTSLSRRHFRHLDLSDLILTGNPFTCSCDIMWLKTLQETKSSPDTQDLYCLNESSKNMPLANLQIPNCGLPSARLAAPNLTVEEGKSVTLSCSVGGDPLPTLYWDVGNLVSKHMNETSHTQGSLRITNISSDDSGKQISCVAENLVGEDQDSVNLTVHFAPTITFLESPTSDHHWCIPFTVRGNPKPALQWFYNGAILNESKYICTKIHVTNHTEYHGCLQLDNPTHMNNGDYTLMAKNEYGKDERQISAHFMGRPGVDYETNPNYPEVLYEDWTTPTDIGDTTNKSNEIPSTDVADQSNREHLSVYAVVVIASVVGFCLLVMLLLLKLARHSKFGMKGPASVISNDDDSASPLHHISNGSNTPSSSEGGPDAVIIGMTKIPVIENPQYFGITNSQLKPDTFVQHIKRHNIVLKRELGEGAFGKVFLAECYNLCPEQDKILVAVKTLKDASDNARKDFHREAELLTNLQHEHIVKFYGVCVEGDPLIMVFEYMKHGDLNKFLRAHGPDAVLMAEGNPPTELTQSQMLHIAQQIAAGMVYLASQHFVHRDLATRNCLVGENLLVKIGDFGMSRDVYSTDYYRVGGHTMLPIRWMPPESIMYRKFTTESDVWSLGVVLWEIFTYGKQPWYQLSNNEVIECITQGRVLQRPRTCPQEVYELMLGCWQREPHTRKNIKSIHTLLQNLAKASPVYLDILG

For the molecule `O=c1cc(-c2ccc(N3CCOCC3)cc2)oc2c(O)c(O)ccc12` [Control compound, reference compound], in assay [1] (500 nM), the “Relative intensity of p-TrkB/t-TrkB protein” value amounted to 138.890 ± 15.547. Moreover, the “Relative intensity of p-AKT/t-AKT protein” value in assay [2] (500 nM) was determined as 147.748 ± 4.832. Besides, the “Relative content of p-Akt protein (ELISA, ratio to blank control group)” value in assay [3] (500 nM) is listed as 138.33±2.08%.

`CC1=NN(c2ccccc2)C(=O)C1` [Edaravone, reference compound]: the “Neurobehavioral score (0 to 4 points)” value in assay [4] (6 h after ischemia) came to 2 ± 0.18; in assay [4] (1 d after ischemia), 2.36 ± 0.29; in assay [4] (2 d after ischemia), 2.89 ± 0.31; in assay [4] (3 d after ischemia) it was 2.38 ± 0.37; in assay [4] (4 d after ischemia) it was 2 ± 0.33; in assay [4] (5 d after ischemia), 2.14 ± 0.46. Moreover, the “Neurobehavioral score (0 to 4 points)” value is recorded as 2 ± 0.31 in assay [4] (6 d after ischemia) and 1.67 ± 0.21 in assay [4] (7 d after ischemia). Moreover, the “Volume percentage of cerebral infarction” value in assay [5] was 33.50 ± 7.21%.

For `[2H]c1c(-c2ccc(N3CCCCC3)cc2)oc2c(O)c(O)ccc2c1=O` [Example 7, 3-deutero-7,8-dihydroxy-2-(4-(piperidin-1-yl)phenyl)-4H-chromen-4-one], the “Relative intensity of p-TrkB/t-TrkB protein” value in assay [1] (500 nM) stood at 218.156 ± 12.556. The “Relative intensity of p-AKT/t-AKT protein” value in assay [2] (500 nM) turned out to be 220.514 ± 3.476. In addition, in assay [3] (500 nM), the “Relative content of p-Akt protein (ELISA, ratio to blank control group)” value came to 218.33±2.31%.

B1: BDNF: Brain-derived neurotrophic factor, positive control, purchased from Peprotech (protein, UniProt P23560 19-247, looked up)
Neurotrophic factor BDNF …: APMKEANIRGQGGLAYPGVRTHGTLESVNGPKAGSRGLTSLADTFEHVIEELLDEDQKVRPNEENNKDADLYTSRVMLSSQVPLEPPLLFLLEEYKNYLDAANMSMRVRRHSDPARRGELSVCDSISEWVTAADKKTAVDMSGGTVTVLEKVPVSKGQLKQYFYETKCNPMGYTKEGCRGIDKRHWNSQCRTTQSYVRALTMDSKKRIGWRFIRIDTSCVCTLTIKRGR
As for B1, in assay [1] (BDNF 10 ng/mL), the “Increase of relative intensity of p-TrkB compared with Vehicle group” value is recorded as 2.74 times and the “Relative intensity of p-TrkB/t-TrkB protein” value came out at 274.260 ± 8.047. In assay [2] (BDNF 10 ng/mL), the “Relative intensity of p-AKT/t-AKT protein” value is 229.306 ± 3.912. In addition, the “Relative content of p-Akt protein (ELISA, ratio to blank control group)” value in assay [3] (BDNF 10 ng/mL) is recorded as 231%.
